Results: ChEMBL document CHEMBL1250437, “Callyaerins A-F and H, new cytotoxic cyclic peptides from the Indonesian marine sponge Callyspongia aerizusa” (Bioorg Med Chem, 2010)

Assays:
Staphylococcus aureus = assay: Antimicrobial activity against Staphylococcus aureus at 5 to 10 uL; format: functional
Candida albicans = assay: Antimicrobial activity against Candida albicans at 5 to 10 uL; format: functional
L5178Y = assay: Cytotoxicity against mouse L5178Y cells; format: functional; details: read-out: ED50 (the source's name)
Escherichia coli = assay: Antimicrobial activity against Escherichia coli at 5 to 10 uL; format: functional
Bacillus subtilis = assay: Antimicrobial activity against Bacillus subtilis at 5 to 10 uL; format: functional
HeLa = assay: Cytotoxicity against human HeLa cells; format: functional; details: read-out: ED50 (the source's name)
[1] = Toxicity in brine shrimp assessed as mortality at 50 ug/ml; format: organism-based; details: artemia, in vivo; read-out: Activity
[2] = Toxicity in brine shrimp assessed as mortality at 20 ug/ml; format: organism-based; details: artemia, in vivo; read-out: Activity
PC-12 = assay: Cytotoxicity against rat PC12 cells; format: functional; details: read-out: ED50 (the source's name)

Compound | inhibition zone (IZ) (Staphylococcus aureus) [mm] | inhibition zone (IZ) (Candida albicans) [mm] | EC50 (L5178Y) [µM] | inhibition zone (IZ) (Escherichia coli) [mm] | inhibition zone (IZ) (Bacillus subtilis) [mm] | EC50 (HeLa) [µM] | mortality at 50 ug/ml [1] [%] | mortality at 20 ug/ml [2] [%] | EC50 (PC-12) [µM]
CC[C@@H](C)[C@@H]1NC(=O)[C@H](C(C)C)NC(=O)[C@@H]2C[C@@H](O)CN2C(=O)[C@H]([C@@H](C)CC)N/C=C(\C(=O)N2CCC[C@H]2C(=O)N[C@H](C(=O)N[C@@H](Cc2ccccc2)C(=O)NCC(N)=O)[C@@H](C)CC)NC(=O)[C@H](CC(C)C)NC(=O)[C@@H]2CCCN2C(=O)[C@@H]2CCCN2C(=O)[C@H](CC(C)C)NC1=O [CALLYAERIN A] | 9 | 25 | 3.61 | 10 | 0 | – | – | – | –
CC[C@@H](C)[C@@H]1NC(=O)[C@H]([C@@H](C)CC)NC(=O)[C@@H]2C[C@@H](O)CN2C(=O)[C@H]([C@H](C)CC)N/C=C(\C(=O)N2CCC[C@H]2C(=O)N[C@H](C(=O)N[C@H](C(=O)O)[C@@H](C)CC)[C@@H](C)CC)NC(=O)[C@H](CC(C)C)NC(=O)[C@@H]2CCCN2C(=O)[C@@H]2CCCN2C(=O)[C@H](CC(C)C)NC1=O [CALLYAERIN B] | 11 | 15 | 4.14 | 7 | 0 | > 8 | 35 | 15 | > 8
CC[C@@H]1NC(=O)[C@@H]2C[C@@H](O)CN2C(=O)[C@@H]2CCCN2C(=O)[C@H](Cc2ccccc2)NC(=O)[C@H]([C@H](C)CC)NC(=O)[C@H]([C@H](C)CC)N/C=C(\C(=O)N2CCC[C@H]2C(=O)N[C@H](C(=O)N[C@@H](CC(N)=O)C(=O)N[C@@H](C)C(=O)N[C@H](C(=O)O)[C@@H](C)CC)[C@@H](C)CC)NC(=O)[C@H](CC(C)C)NC1=O [CALLYAERIN D] | 0 | 0 | 3.03 | 0 | 12 | – | – | – | –
CC[C@H](C)[C@H](NC(=O)[C@@H](NC(=O)[C@@H]1CCCN1C(=O)/C1=C/N[C@@H](CC(C)C)C(=O)N2CCC[C@H]2C(=O)N[C@@H](Cc2ccccc2)C(=O)N[C@@H](Cc2ccccc2)C(=O)N2CCC[C@H]2C(=O)N2CCC[C@H]2C(=O)N[C@@H](C(C)C)C(=O)N1)[C@@H](C)CC)C(=O)NCC(=O)O [CALLYAERIN E] | 9 | 20 | 0.39 | 9 | 15 | 3.4 | 70 | 45 | 3.8
CC[C@H](C)[C@H](NC(=O)[C@H](Cc1ccccc1)NC(=O)[C@H](CC(C)C)NC(=O)[C@@H]1CCCN1C(=O)/C1=C\N[C@@H](C(C)C)C(=O)N2CCC[C@H]2C(=O)N[C@@H](C(C)C)C(=O)N[C@@H](Cc2ccccc2)C(=O)N2CCC[C@H]2C(=O)N1)C(=O)O [CALLYAERIN F] | 0 | 0 | > 9 | 0 | 0 | > 9 | – | – | > 9
CC(C)C[C@@H]1NC(=O)[C@@H]2CCCN2C(=O)[C@H]2CCCN2C(=O)[C@@H]2CCCN2C(=O)[C@@H]2CCCN2C(=O)[C@H](CC(C)C)N/C=C(\C(=O)N2CCC[C@H]2C(=O)N[C@@H](Cc2ccccc2)C(=O)N[C@@H](Cc2ccccc2)C(=O)N[C@@H](Cc2ccccc2)C(=O)O)NC1=O [CALLYAERIN G] | – | – | 0.41 | – | – | 4.43 | – | – | > 8
CC[C@H](C)[C@H](NC(=O)[C@@H]1CCCN1C(=O)/C1=C\N[C@@H](C(C)C)C(=O)N2CCC[C@H]2C(=O)N[C@@H](C(C)C)C(=O)N[C@@H](Cc2ccccc2)C(=O)N2CCC[C@H]2C(=O)N2CCC[C@H]2C(=O)N[C@@H](CC(C)C)C(=O)N1)C(=O)O [CALLYEARIN H] | – | – | 0.48 | – | – | – | 55 | 30 | –
